Laboratory results: patent US7345078B2, “NF-κB inhibitors and uses thereof” (The Board of Trustees of Michigan State University, priority 2002, dated 2008)
pIC50: −log10 of the molar value. Where two headings read alike, the source gives them in different places. Marks after values point to notes of the source that are not given here. Blank lines part the entries; values can stand above or below the compound they belong to.

Key:
[1] = target: T1, NF-κB (Homo sapiens, UniProt P19838+Q04206); assay: EMSA of nuclear NF-κB-DNA binding in nuclear extracts of PMA-stimulated Jurkat leukemia T-cells; type: cell-based; design: endogenous in cells; host or cells: Jurkat leukemia T-cells, clone E6-1 (ATCC), PMA-stimulated; nuclear extract
T1 sequence (Q04206 whole entry): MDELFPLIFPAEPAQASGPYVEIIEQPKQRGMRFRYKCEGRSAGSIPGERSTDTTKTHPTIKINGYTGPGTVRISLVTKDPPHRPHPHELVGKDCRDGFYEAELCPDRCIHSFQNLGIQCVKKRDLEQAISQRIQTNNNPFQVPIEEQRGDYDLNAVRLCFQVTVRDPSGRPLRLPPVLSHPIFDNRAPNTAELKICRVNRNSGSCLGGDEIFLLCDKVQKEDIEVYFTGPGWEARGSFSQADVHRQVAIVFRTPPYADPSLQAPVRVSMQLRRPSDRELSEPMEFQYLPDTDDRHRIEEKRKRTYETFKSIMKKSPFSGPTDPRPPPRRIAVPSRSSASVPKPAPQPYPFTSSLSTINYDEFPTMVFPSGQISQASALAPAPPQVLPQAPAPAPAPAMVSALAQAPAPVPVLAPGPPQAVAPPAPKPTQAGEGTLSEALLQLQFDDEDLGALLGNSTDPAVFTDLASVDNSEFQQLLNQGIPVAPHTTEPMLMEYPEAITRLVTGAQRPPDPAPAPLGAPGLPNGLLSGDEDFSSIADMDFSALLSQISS
T1 sequence (P19838 1-433 limits assumed): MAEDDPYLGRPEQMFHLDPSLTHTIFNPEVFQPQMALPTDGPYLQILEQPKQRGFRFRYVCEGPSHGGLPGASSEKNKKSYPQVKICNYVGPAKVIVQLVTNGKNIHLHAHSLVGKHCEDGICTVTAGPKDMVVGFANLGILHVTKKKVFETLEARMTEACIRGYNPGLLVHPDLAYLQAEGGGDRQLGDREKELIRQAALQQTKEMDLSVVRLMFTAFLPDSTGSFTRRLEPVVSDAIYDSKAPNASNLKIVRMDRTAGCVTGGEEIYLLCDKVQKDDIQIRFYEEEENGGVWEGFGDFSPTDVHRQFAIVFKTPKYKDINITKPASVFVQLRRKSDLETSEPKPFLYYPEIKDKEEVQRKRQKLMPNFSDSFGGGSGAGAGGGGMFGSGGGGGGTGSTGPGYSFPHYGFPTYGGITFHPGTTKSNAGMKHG
Method: (§1) All compounds were evaluated for their potential anti-inflammatory activity by examining the activity of NF-κB in vitro in nuclear extracts using the procedure from Breton and Charbot-Fletcher (Breton et al., J. Pharmacol. Exp. Ther. 282 459-466 (1997)). […] The Jurkat cells (1×10^7 cells/mL) are subsequently treated with various concentrations of imidazoline for 30 minutes at 37° C. followed by PMA stimulation (5.0 ng/mL) for an additional 5 hours. Nuclear extracts are incubated for 20 minutes with a double stranded Cy3 labeled NF-κB consensus oligonucleotide, 5′-[…]-3′ (SEQ ID NO:1) at room temperature. The crude mixture is loaded on a 5% non-denaturing polyacrylamide gel prepared in 1×Tris borate/EDTA buffer and electrophoresed at 200V for 2 hours. After electrophoresis the gel is analyzed using a phosphorimager (Biorad FX PLUS) for detection of the NF-κB-DNA binding.
EMSA assay for NF-κB-DNA binding was as follows. […] The Jurkat cells (1×10^6 cells/mL) were subsequently treated with various concentrations of the compounds for 30 minutes at 37° C. and 5% CO2 followed by PMA (50 ng/mL) and PHA ([…]) stimulation for an additional 30 minutes. The cells were harvested by centrifugation, washed in ice cold PBS and the nuclear extracts were prepared as previously described (Dignam, et al., Nucl. Acids Res 11: 1475-1489 (1983)). The protein concentration of the extracts was determined according to the Method of Bradford (1976) with BioRad reagents. Nuclear extracts are incubated for 20 minutes at room temperature with a double stranded Cy3 labeled NF-kB consensus oligonucleotide, 5′-[…] CCAGGC-3′ (SEQ ID NO:1). The binding mixture ([…]) contained 10 mM HEPES-NaOH pH 7.9, 4 mM tris-HCl, pH 7.9, 6.0 mM KCl, 1 mM EDTA, 1 mM DTT, 10% glycerol, 0.3 mg/mL bovide serum albumin and […] of poly (dI.dC). The binding mixtures ([…] of nuclear extract protein) were incubated for 20 minutes at room temrperature with 0.16 pmol of Cy3 labeled oligonucleotide. The mixture was loaded on a 4% polyacrylamide gel prepared in 1× tris borate/EDTA buffer and was electrophoresed at 200 V for 20 minutes. After electrophoresis the gel was analyzed using a phosphorimager (Biorad FX plus) for detection of the NF-kB—DNA binding.

[2] = target: T1, NF-κB; assay: IC50 values in Mammalian Jurkat cells Leukemia T cells; type: cell-based; design: endogenous in cells; host or cells: Jurkat leukemia T-cells, clone E6-1 (ATCC), PMA-stimulated; nuclear extract; settings: concentration at which 50% of the protein/enzyme is inhibited in cells
Method: as §1
IC50 values in Mammalian Jurkat cells Leukemia T cells: IC50 value is defined as the concentration of compounds at which 50% of the protein/enzyme is inhibited in cells (Table 3).

[3] = tested on: RIF-1 murine tumor; assay: RIF-1 murine model of tumor growth delay; type: in vivo, mice; settings: for Days Delay (tumor growth delay) / Median (days to 4x) / Days to 4x (Ave ±SE) / T/C (ratio of Days to 4x of treated over untreated controls): IP, imidazoline 100 mg/kg, cis-platin 4 mg/kg, camptothecin 6 mg/kg; for Median (days to 4x): untreated 7.0; for Days to 4x (Ave ±SE): untreated 7.3 ± 0.6; for chemopotentiation of camptothecin: combinational treatment with camptothecin (CPT); for chemopotentiation of camptothecin / chemopotentiation of cis-platin: RIF-1 tumors in mice; for chemopotentiation of cis-platin: combinational treatment with cis-platin (CDDP)
Method: Tumor cells were injected, bilaterally, into the backs of mice. When tumors reached 100 mm^3, the mice were treated with an intraperitoneal injection of the compound. Tumor volumes were measured 3 times a week until they reached 4 times the size they were on the first treatment day. Data is recorded as “Days to 4×’ or ratio of ‘Days to 4×” of the treated over untreated controls.

[4] = tested on: CEM cells; settings: for sensitization of CEM cells towards camptothecin: camptothecin 0.1 μM
Method: Imidazolines 28-33 were evaluated for their ability to enhance the activity of camptothecin in CEM cells. Induction of apoptosis is the hallmark of most chemotherapeutic agents including camptothecin. The systematic disassembly of apoptotic cells is accomplished by active caspases (Thornberry et al., Nature 356: 768-774 (1992); Nicholson et al., Trends Biochem. Sci. 22: 299-306 (1997)). A standard apoptosis assay is Promega's APO-ONE homogeneous caspase-3/7 assay, which takes advantage of this caspase activity to directly quantify the induction of apoptosis in cells (Thornberry et al., Nature 356: 768-774 (1992); Nicholson et al., Trends Biochem. Sci. 22: 299-306 (1997)). According to the hypothesis that NF-κB inhibition should enhance the activity of chemotherapeutic agents via the inhibition of anti-apoptotic signaling pathway—thus enhancement of apoptosis—(Boland, Biochem Soc Trans 29: 674-678 (2001); Chiao et al., Cancer 95: 1696-1705 (2002)), we investigated the effects of the imidazolines using this caspase-3/7 assay. This assay quantifies the level of apoptotic cell death induced by camptothecin with and without the imidazolines and will establish the direct level of enhancement of apoptosis by camptothecin.
Induction of apoptosis using caspase 3/7 assay was as follows. CEM cells (CCRF-CEM); Amer. Type Culture Collection, Rockville, Md.) were grown in RPMI-1640 Media (Gibco-BRL, Rockville, Md.) supplemented with 10% fetal bovine serum, penicillin (614 ηg/mL), streptomycin (10 μg/mL) and hepes buffer, pH 7.2 at 37° C., 5% CO2. DMSO was used as the vector for all drugs and added in the control experiments. Cell cultures were treated with 1 μM, 0.1 μM or 10 nM of the imidazolines and allowed to incubate at 37° C., 5% CO2. An aliquote was transferred to a 96-well plate and mixed with an equal volume of Apo-ONE™ Homogenous Caspase-3/7 assay (Promega Corporation) reagent. The contents of the plate were gently mixed and allowed to incubate for 1 hour. The fluorescence of each well was then measured on a Molecular Imager FX Pro at 532 nm. All reported data was the average of two independent experiments unless otherwise indicated.

[5] = IP, doses 5.0 and 50 mg/kg
Method: Prior to the combinatorial studies, the toxicity of the compounds was determined in the mouse model. […] In short, the drugs are dissolved in DMSO and 100 μL given to the mice on day 0 by intraperitoneal injection (IP). […] Weight and death were the two measures of toxicity.

[6] = target: T1, NF-κB; assay: EMSA of camptothecin activated NF-κB in CEM leukemia T-cells; type: cell-based; design: endogenous in cells; nuclear extract; settings: camptothecin 10 μM to 10 nM, 2 hours
Method: CEM cells were incubated with and without varying concentrations of camptothecin (CPT). Positive controls included PMA/PHA activation (FIG. 11, lane 2). Lane 3 included a positive control using PMA/PHA activation followed by the treatment of the extract with a NF-κB p65 antibody to unambiguously identify the NF-κB/DNA complex.
CEM cells were treated with various concentration of imidazoline 32, 30 minutes prior to activation by camptothecin (0.1 μM). […] Control lanes include: DNA only (lane 1), PMA/PHA activated NF-κB (lane 2), PMA/PHA activated NF-κB treated with a p65 antibody, which provide a supershift (lane 3) and the unactivated control (lane 4).
EMSA assay for NF-κB-DNA binding was as follows. […] The cells were harvested by centrifugation, washed in ice cold PBS and the nuclear extracts were prepared as previously described (Dignam, et al., Nucl. Acids Res 11: 1475-1489 (1983)). The protein concentration of the extracts was determined according to the Method of Bradford (1976) with BioRad reagents. Nuclear extracts are incubated for 20 minutes at room temperature with a double stranded Cy3 labeled NF-kB consensus oligonucleotide, 5′-[sequence] […] The binding mixture (25 mL) contained 10 mM HEPES-NaOH pH 7.9, 4 mM tris-HCl, pH 7.9, 6.0 mM KCl, 1 mM EDTA, 1 mM DTT, 10% glycerol, 0.3 mg/mL bovide serum albumin and 1 mg of poly (dI.dC). The binding mixtures (10 mg of nuclear extract protein) were incubated for 20 minutes at room temrperature with 0.16 pmol of Cy3 labeled oligonucleotide. The mixture was loaded on a 4% polyacrylamide gel prepared in 1× tris borate/EDTA buffer and was electrophoresed at 200 V for 20 minutes. After electrophoresis the gel was analyzed using a phosphorimager (Biorad FX plus) for detection of the NF-kB—DNA binding.

SMILES: C[C@]1(C(=O)O)N=C(c2ccccc2)N(Cc2ccccc2)[C@H]1c1ccccc1 (racemic) [Compound 1, Dl-(3S,4S)-1-Benzyl-4-methyl-2,5-diphenyl-4,5-dihydro-1H-imidazole-4-carboxylic acid]
inhibition at 1 µM ([1]; compound 1.0 μM): 19%
pIC50 [2]: 5.71
Days Delay (tumor growth delay) [3]: -0.57 days
Median (days to 4x) [3]: 6.4 days
Days to 4x (Ave ±SE) [3]: 6.5 ± 0.3 days
chemopotentiation of camptothecin [3]: no significant chemopotentiation
chemopotentiation of cis-platin [3]: no significant chemopotentiation

inhibition at 1 µM ([1]; compound 1.0 μM): 68%
pIC50 [2]: 7.40
SMILES: COc1ccc([C@@H]2N(Cc3ccccc3)C(c3ccccc3)=N[C@]2(C)C(=O)O)cc1 (racemic) [Compound 2, Dl-(3S,4S)-1-Benzyl-5-(4-methoxyphenyl)-4-methyl-2-phenyl-4,5-dihydro-1H-imidazole-4-carboxylic acid]

SMILES: C[C@]1(C(=O)O)N=C(c2ccccc2)N(c2ccc(F)cc2)[C@H]1c1ccccc1 (racemic) [Compound 3, Dl-(3S,4S)-1-(4-Fluorophenyl)-4-methyl-2,5-diphenyl-4,5-dihydro-1H-imidazole-4-carboxylic acid]
inhibition at 1 µM ([1]; compound 1.0 μM): 35%
pIC50 [2]: 8.19
Days Delay (tumor growth delay) [3]: -0.20 days
Median (days to 4x) [3]: 6.8 days
Days to 4x (Ave ±SE) [3]: 7.6 ± 1.0 days
chemopotentiation of camptothecin [3]: no significant chemopotentiation
chemopotentiation of cis-platin [3]: no significant chemopotentiation

SMILES: O=C(O)C1(Cc2c[nH]c3ccccc23)N=C(c2ccccc2)N(Cc2ccccc2)C1c1ccccc1 (racemic) [Compound 5, Dl-(3S,4S)-1-Benzyl-4-(1H-indol-3-ylmethyl)-2,5-diphenyl-4,5-dihydro-1H-imidazole-4-carboxylic acid]
% inhibition of NF-κB ([1]; compound 1.0 μM): 0%

SMILES: CCOC(=O)[C@H]1N(c2ccc(F)cc2)C(c2ccccc2)=N[C@]1(C)C(=O)O (racemic) [Compound 8, Dl-(3S,4S)-1-(4-Fluorophenyl)-4-methyl-2-phenyl-4,5-dihydro-1H-imidazole-4,5-dicarboxylic acid 5-ethyl ester]
% inhibition of NF-κB ([1]; compound 0.1 μM (100 nM)): 88%
% inhibition of NF-κB ([1]; compound 1.0 μM): 94%

SMILES: CCOC(=O)[C@@]1(C)N=C(c2ccccc2)N(Cc2ccccc2)[C@H]1c1ccncc1 (racemic) [Compound 9, Dl-(3S,4S)-1-Benzyl-4-methyl-2-phenyl-5-pyridin-4-yl-4,5-dihydro-1H-imidazole-4-carboxylic acid ethyl ester]
% inhibition of NF-κB ([1]; compound 0.1 μM (100 nM), 0.1 µM): 71%

SMILES: CCOC(=O)C1(C)N=C(c2ccccc2)N(Cc2ccccc2)C1c1ccccc1 (racemic) [Compound 10, Dl-(3S,4S)-1-Benzyl-4-methyl-2,5-diphenyl-4,5-dihydro-1H-imidazole-4-carboxylic acid ethyl ester]
% inhibition of NF-κB ([1]; compound 0.1 μM (100 nM)): 22%

SMILES: CCOC(=O)[C@H]1N(c2ccc(F)cc2)C(c2ccccc2)=N[C@]1(C)C(=O)O (racemic) [Compound 29, dl-(4S,5S)-1-(4-Fluorophenyl)-4-methyl-2-phenyl-4,5-dihydro-1H-imidazole-4,5-dicarboxylic acid 5-ethyl ester]
Apoptosis (±S.D.) ([4]; Compound 1.0 μm alone, T-cells, 48 hour period, cells only = 1.00 (normalized)): 0.95 ± 0.24

SMILES: CCOC(=O)[C@H]1N(c2ccc(F)cc2)C(c2ccccc2)=N[C@@]1(C(=O)O)c1ccccc1 (racemic) [Compound 30, dl-(4S,5S)-1-(4-Fluorophenyl)-2,4-diphenyl-4,5-dihydro-1H-imidazole-4,5-dicarboxylic acid 5-ethyl ester]
Apoptosis (±S.D.) [4]: 1.18 ± 0.20
sensitization of CEM cells towards camptothecin ([4]; 0.01 μM imidazoline): sensitization
sensitization of CEM cells towards camptothecin ([4]; 0.1 μM imidazoline): sensitization
sensitization of CEM cells towards camptothecin ([4]; 1 μM imidazoline): sensitization

SMILES: C[C@]1(C(=O)O)N=C(c2ccccc2)N(Cc2ccccc2)[C@H]1c1ccncc1 (racemic) [Compound 31, dl-(4S,5S)-1-Benzyl-4-methyl-2-phenyl-5-pyridin-4yl-4,5-dihydro-1H-imidazole-4-carboxylic acid]
Apoptosis (±S.D.) [4]: 1.18 ± 0.00^b
sensitization of CEM cells towards camptothecin ([4]; 0.01 μM imidazoline): sensitization
sensitization of CEM cells towards camptothecin ([4]; 0.1 μM imidazoline): sensitization
sensitization of CEM cells towards camptothecin ([4]; 1 μM imidazoline): sensitization

SMILES: C[C@]1(C(=O)O)N=C(c2ccccc2)N(Cc2ccccc2)[C@H]1c1ccccc1 (racemic) [Compound 33, dl-(4S,5S)-1-Benzyl-4-methyl-2,5-diphenyl-4,5-dihydro-1H-imidazole-4-carboxylic acid]
tolerability in mice [5]: well tolerated

SMILES: CC[C@@]1(O)C(=O)OCc2c1cc1n(c2=O)Cc2cc3ccccc3nc2-1 [Camptothecin, camptothecin, reference compound]
NF-κB/DNA binding due to NF-κB activation [6]: significant amount of NF-κB/DNA binding
Fold enhancement of camptothecin (0.1 μM) after 48 hours ([4]; CEM cells, imidazoline 1.0 μM + CPT 0.1 μM versus CPT 0.1 μM): 1.00
Days Delay (tumor growth delay) [3]: 3.79 days
T/C (ratio of Days to 4x of treated over untreated controls) [3]: 1.4
Median (days to 4x) [3]: 10.8 days
Days to 4x (Ave ±SE) [3]: 10.3 ± 0.6 days

SMILES: N.N.[Cl][Pt][Cl] [Cis-platin, cis-platin, reference compound]
Days Delay (tumor growth delay) [3]: 0.82 days
T/C (ratio of Days to 4x of treated over untreated controls) [3]: 1.1
Median (days to 4x) [3]: 7.8 days
Days to 4x (Ave ±SE) [3]: 8.1 ± 0.4 days
